We go through 16 compounds from patent publication US7279600B2, “Hydroxy-biphenyl-carbaldehyde oxime derivatives and their use as estrogenic agents” (Wyeth, priority 2003, dated 2007).

pIC50: −log10 of the molar value. Counter-ions that a name gives are not always drawn.

For one data set, the target named is ERβ (Homo sapiens, UniProt Q92731). Nature of the data set: biochemical.
The target of another data set is ERα (Homo sapiens, UniProt P03372). Description: biochemical.
Chain of ERα (P03372 whole entry): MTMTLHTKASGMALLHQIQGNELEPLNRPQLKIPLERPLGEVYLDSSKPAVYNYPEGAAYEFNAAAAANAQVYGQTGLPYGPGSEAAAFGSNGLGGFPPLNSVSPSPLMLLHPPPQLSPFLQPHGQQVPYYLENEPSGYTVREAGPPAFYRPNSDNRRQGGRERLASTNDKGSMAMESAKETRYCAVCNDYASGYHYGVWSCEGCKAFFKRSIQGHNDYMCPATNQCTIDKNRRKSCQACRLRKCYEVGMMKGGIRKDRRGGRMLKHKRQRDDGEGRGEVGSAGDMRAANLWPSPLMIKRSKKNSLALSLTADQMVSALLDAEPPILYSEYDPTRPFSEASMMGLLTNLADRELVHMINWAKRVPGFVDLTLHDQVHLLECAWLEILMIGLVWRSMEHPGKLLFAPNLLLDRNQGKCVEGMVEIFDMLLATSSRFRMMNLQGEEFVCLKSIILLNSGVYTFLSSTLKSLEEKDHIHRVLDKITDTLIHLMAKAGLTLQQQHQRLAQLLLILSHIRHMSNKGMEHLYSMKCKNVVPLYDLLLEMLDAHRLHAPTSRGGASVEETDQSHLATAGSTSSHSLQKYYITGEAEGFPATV

Chain of ERβ (Q92731 whole entry, species assumed): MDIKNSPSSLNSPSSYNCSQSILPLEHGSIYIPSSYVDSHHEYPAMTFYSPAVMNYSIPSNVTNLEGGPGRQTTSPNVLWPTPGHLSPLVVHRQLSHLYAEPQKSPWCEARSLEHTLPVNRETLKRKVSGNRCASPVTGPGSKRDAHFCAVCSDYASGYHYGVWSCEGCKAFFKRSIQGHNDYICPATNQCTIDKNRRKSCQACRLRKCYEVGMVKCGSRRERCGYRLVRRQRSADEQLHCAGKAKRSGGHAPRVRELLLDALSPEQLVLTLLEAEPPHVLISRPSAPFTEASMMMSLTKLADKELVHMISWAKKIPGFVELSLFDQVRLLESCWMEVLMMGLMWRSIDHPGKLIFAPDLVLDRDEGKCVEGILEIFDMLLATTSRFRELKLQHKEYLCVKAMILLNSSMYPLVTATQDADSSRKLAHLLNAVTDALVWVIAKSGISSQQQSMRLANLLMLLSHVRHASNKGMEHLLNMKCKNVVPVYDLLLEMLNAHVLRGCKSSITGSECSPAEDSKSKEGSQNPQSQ

Turning to `Cc1cc(O)ccc1-c1ccc(/C=N/O)c(Cl)c1` [Example 39, 3-Chloro-4′-hydroxy-2′-methyl-1,1′-biphenyl-4-carbaldehyde oxime], the melting point (in general, the temperature, or range, at which the solid turns liquid) lay within 169 to 171 °C. Further, the pIC50 (in general, the negative decadic logarithm of the IC50, by convention in mol/L) against ERβ was 7.57. The pIC50 on ERα was 6.76.
In turn, `O/N=C/c1ccc(-c2ccc(O)cc2)c(Cl)c1` [Example 34, 2-Chloro-4′-hydroxy-1,1′-biphenyl-4-carbaldehyde oxime] registered a melting point of 178 to 179 °C. The same compound showed a pIC50 against ERβ of 7.01. Besides, the pIC50 against ERα was 6.40.
Take `Cc1cc(/C=N/O)ccc1-c1ccc(O)cc1` [Example 36, 4′-Hydroxy-2-methyl-1,1′-biphenyl-4-carbaldehyde oxime]: the melting point lay within 169 to 171 °C. The compound further gave a pIC50 against ERβ of 6.23. At ERα, this compound had a pIC50 of 5.55.
The corresponding values for `O/N=C/c1c(Cl)cc(-c2ccc(O)cc2)cc1Cl` [Example 54, 3,5-Dichloro-4′-hydroxy-1,1′-biphenyl-4-carbaldehyde oxime] are 183 to 186 °C, 8.10 and 7.19.
For `O/N=C/c1ccc(-c2ccc(O)cc2)cc1F` [Example 33, 3-Fluoro-4′-hydroxy-1,1′-biphenyl-4-carbaldehyde oxime], the pIC50 is 6.79 against ERβ and 5.76 at ERα.
In the case of `O/N=C/c1c(Cl)cc(-c2ccc(O)c(F)c2)cc1Cl` [Example 55, 3,5-Dichloro-3′-fluoro-4′-hydroxy-1,1′-biphenyl-4-carbaldehyde oxime], the melting point lay within 185 to 190 °C.
`O/N=C/c1ccc(-c2ccc(O)c(F)c2)cc1Cl` [Example 37, 3-Chloro-3′-fluoro-4′-hydroxy-1,1′-biphenyl-4-carbaldehyde oxime] had a melting point of 198 to 200 °C. Besides, the pIC50 against ERβ was 7.27. Besides, at ERα, the pIC50 is 5.72.
Turning to `O/N=C/c1ccc(-c2ccc(O)c(F)c2)c(Cl)c1Cl` [Example 57, 2,3-Dichloro-3′-fluoro-4′-hydroxy-1,1′-biphenyl-4-carbaldehyde oxime], the pIC50 on ERβ is 7.09; against ERα it was 5.71.
`O/N=C/c1ccc(-c2ccc(O)cc2)c(Cl)c1Cl` [Example 56, 2,3-Dichloro-4′-hydroxy-1,1′-biphenyl-4-carbaldehyde oxime] had a melting point of 208 to 210 °C. For the same compound, the pIC50 at ERβ is 7.31. This compound had a negative-log IC50 (pIC50) against ERα of 6.07.
`O/N=C/c1ccc(-c2ccc(O)cc2)c(F)c1` [Example 32, 2-Fluoro-4′-hydroxy-1,1′-biphenyl-4-carbaldehyde oxime] displayed a melting point of 178 to 180 °C. The compound further had a negative logarithm of the IC50 (pIC50) against ERβ of 6.38. In addition, on ERα, the pIC50 was 5.46.
The corresponding values for `COc1cc(-c2ccc(O)cc2)ccc1/C=N/O` [Example 35, 4′-Hydroxy-3-methoxy-1,1′-biphenyl-4-carbaldehyde oxime] are 228 to 230 °C, 5.98 and 5.10.
In the case of `O/N=C/c1ccc(-c2ccc(O)c(F)c2)c(Cl)c1Cl` (as salt: salt) [Example 57, 2,3-Dichloro-3′-fluoro-4′-hydroxy-1,1′-biphenyl-4-carbaldehyde oxime], the melting point lay within 225 to 227 °C.
Turning to `O/N=C/c1ccc(-c2ccc(O)cc2)cc1` [Example 30, 4′-Hydroxy[1,1′-biphenyl]-4-carbaldehyde oxime], the melting point lay within 207 to 210 °C. In addition, at ERβ, the pIC50 is 5.42. At ERα, this compound gave a pIC50 of less than 5.30.
The corresponding values for `O/N=C/c1ccc(-c2ccc(O)cc2)cc1Cl` [Example 31, 3-Chloro-4′-hydroxy[1,1′-biphenyl]-4-carbaldehyde oxime] are 187 to 189 °C, 7.07 and 5.81.
With `Cc1cc(-c2ccc(O)cc2)ccc1/C=N/O` [Example 29, 4′-Hydroxy-3-methyl[1,1′-biphenyl]-4-carbaldehyde oxime], the melting point lay in the range of 195 to 197 °C. For the same compound, the pIC50 on ERβ was 6.79. The compound also had a pIC50 at ERα of 5.50.
For the compound `O/N=C/c1ccc(-c2cc(F)c(O)c(F)c2)cc1Cl` [Example 38, 3-Chloro-3′, 5′-fluoro-4′-hydroxy-1,1′-biphenyl-4-carbaldehyde oxime], the melting point was in the range of 216 to 219 °C. The compound further gave a pIC50 against ERβ of 6.57. Moreover, on ERα, the pIC50 is less than 5.15.
